According to US6827926B2, “Metallotetrapyrrolic photosensitizing agents for use in photodynamic therapy” (Miravant Pharmaceuticals, Inc., priority 2001, dated 2004):
Where two headings read alike, the source gives them in different places.

Columns and labels:
[1] = test system: V79 (Chinese Hamster Lung Fibroblasts) cells; test: In vitro cytotoxicity assay (light EC50, Alamar blue); format: cell-based
Procedure, shortened: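 V79 cells in phenol-free 5% FBS/DMEM exposed 24 h to photosensitizer at final 0.01–5.0 μM, six replicates, then washed and light-treated, with a dark plate as control. Survival by Alamar blue after 24 h dark incubation, read at 570/600 nm.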

[2] = test system: normal skin of CD Hairless male rats; format: in vivo, rat
Description: We tested metallo- and metal-free tetrapyrroles systemically (see following section) for normal skin response in relation to the pharmacodynamic distribution of the photosensitizers in CD hairless rats. The skin of CD hairless rats are poorly developed, often referred to as hyperkeratotic, with various sized cystic hair follicles containing concentric lamellar accumulations of keratinaceous material, which are often associated with enlarged sebaceous glands. It quickly became apparent that gallium tetrapyrroles induced a marked clearing of the hyperkeratotic lesions in the treatment areas on the hairless rats. In fact, this clearing could be induced without necrosis of the skin. No other metallotetrapyrrole type produced such effects. This observation led us to assess the metallotetrapyrrolic compounds for skin restructuring effects both topically and systemically and for their ability to reduce hair growth in the following animal models.
Photosensitizer normal skin response as well as skin healing response, was evaluated using CD Hairless male rats. Photosensitizers were administered in an liposomal egg yolk phospholipid formulation at 1, 1.5 and 2 μmol/kg body weight formulation per dose group as a single bolus intravenous injection given through a marginal tail vein using a 27 gauge needle and a 1 cc tuberculin syringe. Normal skin responses were evaluated by irradiating several spots on the skin of the rat with a 532 nm laser (150 mW/cm^2, 150J, 1 cm diameter) at 1, 6, 24, 48, and 96 hrs post injection. Normal skin responses were evaluated and documented. The time at which the last spot is observed at the concentration injected is reported in the far right hand column in Tables 3, 4, 5 and 6. Skin samples were taken for histological evaluation at days 1, 10, 20 and 22 post light treatment. Rats were housed under normal lighting and all study procedures involving the test article were conducted under light filtered through blue and green Roscolox light filters to prevent photoactivation or degradation of the drug.

[3] = test system: normal uninjured rat carotid arteries (medial and adventitial cell populations); test: In vivo rat carotid artery acellularity after PDT; design: species or system Sprague Dawley rats; details: for Max % rat Artery Accelularity: Table 3, 50 J/cm^2, 3 days post treatment; for Max % Rat Artery Accelularity: Table 4
Experimental: The acute effects of metallated photosensitizers, in response to light activation, to cause depletion of cell populations in the medial and adventitial layers of vessels was measured in normal uninjured rat carotid arteries. […] Shortly before the light treatment, the rats were anaesthetized with 3.5% isoflurane (Abbott Laboratories, IL, USA) and the femoral region of the right leg was shaved and cleaned. […] A direct arteriotomy was performed and a light balloon catheter ([…] Medical Technologies, Inc) was introduced into the vessel and advanced retrogradely into a non-manipulated region of the left common carotid artery via the abdominal aorta. […] After light treatment and removal of the catheter, the right femoral artery was tied off and the skin wound was closed. Rats were sacrificed three days post treatment as this corresponds to the known peak time that vascular cells, e.g., VSMC and myofibroblasts, proliferate and migrate in response to an injury. The area spanning both left and right carotid arteries and surrounding tissue was harvested, fixed, embedded in paraffin and sectioned. The tissues were stained with Hematoxylin and Eosin (Fisher Scientific, PA) and examined by light microscopy to histologically assess the cell population density in the medial and adventitial layers of the PDT-treated vessel wall. […] Metallo azaporphyrins with Ga, Zn, Al, Sn were excited at 575 nm, while Pt azaporphyrins were excited at 532 nm.

[4] = Table 3 porphyrins, 24 h drug incubation, 532 nm, 1.25 J/cm^2, read-out: In Vitro EC50 Light
[5] = Table 4 azaporphyrins, 575 nm (Pt azaporphyrins 532 nm), 1.25 J/cm^2, read-out: In Vitro EC(50)
[6] = drug dose 1 μMol, 575 nm (Pt 532 nm)
[7] = Table 3, time of last skin spot observed post injection, 1 μmol, 532 nm laser

| SMILES | EC50 [1, 4] | Normal skin Response (1 μmol) ([2]; rat, in vivo) | Max % rat Artery Accelularity ([3]; drug dose 1 μMol) | EC50 [1, 5] | Normal skin Response (1 μmol) ([2]; Table 4, time of last skin spot observed post injection, 1 μmol) | Max % Rat Artery Accelularity [3, 6] | Max % Rat Artery Accelularity ([3]; drug dose 0.5 μMol) | Normal skin Response (1 μmol) [2, 7] |
| --- | --- | --- | --- | --- | --- | --- | --- | --- |
| CCC1=C(C)C2=[N+]3C1=Cc1c(C)c(CC)c4[n]1[Ga-2]31([Cl])[n]3c(c(C)c(CCC(=O)N(CC)CC)c3=CC3=[N+]1C(=C4)C(C)=C3CCC(=O)N(CC)CC)=C2 [Example 15, Gallium Chloride Mesoporphyrin N,N-diethylamide] | 450 nM | 96 h | 60% | – | – | – | – | – |
| C=CC1=C(C)c2nc1cc1[n-]c(cc3nc(cc4[n-]c(n2)c(C)c4CCC(=O)OC)C(CCC(=O)OC)=C3C)c(C=C)c1C.[Cl-].[Ga+3] [Example 19, Gallium Chloride 5-azaprotoporphyrin IX Dimethyl Ester] | – | – | – | 400 nM | 24 h | 55% | – | – |
| CCC1=C(CC)C2=[N+]3C1=Nc1c(CC)c(CC)c4[n]1[Ga-2]31([Cl])[n]3c(c(C)c(CCC(=O)OC)c3=CC3=[N+]1C(=C4)C(C)=C3CCC(=O)OC)=C2 [Example 21, Gallium Chloride 7,8,12,13-tetraethyl-12,17-dimethyl-10-azaporphyrin-2,18-di(propionic acid methyl ester)] | – | 24 h | – | 400 nM | – | 60% | – | – |
| CCC1=C(CC)C2=[N+]3C1=Nc1c(CC)c(CC)c4[n]1[Ga-2]31([Cl])[n]3c(c(C)c(CCC(=O)NC)c3=CC3=[N+]1C(=C4)C(C)=C3CCC(=O)NC)=C2 [Example 22, Gallium Chloride 7,8,12,13-tetraethyl-12,17-dimethyl-10-azaporphyrin-2,18-di(propionic acid methyl amide)] | – | 48 h | – | 450 nM | – | – | 50% | – |
| CCOC(=O)CCCCC1=C(C)c2cc3[n-]c(cc4nc(cc5[n-]c(cc1n2)c(CCCCC(=O)OCC)c5C)C(C)=C4CC)c(C)c3CC.[Cl-].[Ga+3] [Example 28, Gallium Chloride 8,13-diethyl-3,7,12,17-tetramethylporphyrin-2,18-di(pentanoic acid ethyl ester)] | 400 nM | 6 h | 80% | – | – | – | – | – |
| CCC1=C(C)c2cc3[n-]c(cc4nc(cc5[n-]c(cc1n2)c(C)c5CCC(=O)OC)C(CCC(=O)OC)=C4C)c(C)c3CC.[Cl-].[In+3] [Example 31, Indium Chloride Mesoporphyrin Dimethyl Ester] | 70 nM | 96 h | 90% | – | – | – | – | – |
| CCC1=C(C)c2cc3[n-]c(cc4nc(cc5[n-]c(cc1n2)c(C)c5CCC(=O)OCCF)C(CCC(=O)OCCF)=C4C)c(C)c3CC.[Cl-].[Ga+3] [Example 34, Gallium Chloride Mesoporphyrin di (2-fluoroethylester)] | 400 nM | 24 h | 80% | – | – | – | – | – |
| CCC1=C(C)c2cc3[n-]c(cc4nc(cc5[n-]c(cc1n2)c(C)c5CC)C(C)=C4CCC(=O)OCCCCl)c(CCC(=O)OCCCCl)c3C.[Cl-].[Ga+3] [Example 35, Gallium Chloride Mesoporphyrin di (3-chloropropylester)] | 400 nM | 96 h | 80% | – | – | – | – | – |
| CC1=Cc2cc3[n-]c(cc4nc(cc5[n-]c(cc1n2)cc5C)C(C)=C4CCC(=O)OCCCCl)c(CCC(=O)OCCCCl)c3C.[Cl-].[Ga+3] [Example 36, Gallium Chloride Deuteroporphyrin di (3-chloropropylester)] | 400 nM | 96 h | 80% | – | – | – | – | – |
| CC1=Cc2cc3[n-]c(cc4nc(cc5[n-]c(cc1n2)cc5C)C(C)=C4CCC(=O)OCCF)c(CCC(=O)OCCF)c3C.[Cl-].[Ga+3] [Example 37, Gallium Chloride Deuteroporphyrin di (2-fluoroethylester)] | 400 nM | – | 80% | – | – | – | – | 48 h |
| CC1=Cc2cc3[n-]c(cc4nc(cc5[n-]c(cc1n2)c(C)c5CCC(=O)OCC(F)(F)F)C(CCC(=O)OCC(F)(F)F)=C4C)cc3C.[Cl-].[Ga+3] [Example 38, Gallium Chloride Deuteroporphyrin di (2,2,2-trifluoroethylester)] | 400 nM | 24 h | 80% | – | – | – | – | – |
| COC(=O)CCC1=C(C)c2cc3[n-]c(cc4nc(cc5[n-]c(cc1n2)c(CCC(=O)OC)c5C)C(Br)=C4C)c(Br)c3C.[Cl-].[Ga+3] [Example 39, Gallium Chloride 3,8-dibromodeuteroporphyrin dimethyl ester] | 400 nM | 6 h | 75% | – | – | – | – | – |
| COC(=O)CCC1=C(C)c2cc3[n-]c(cc4nc(cc5[n-]c(cc1n2)c(CCC(=O)OC)c5C)C(CO)=C4C)c(CO)c3C.[Cl-].[Ga+3] [Example 40, Gallium Chloride 3,8-hydroxymethyl deuteroporphyrin dimethyl ester] | 600 nM | – | 5% | – | – | – | – | 6 h |
| COC(=O)CCC1=C(C)C2=Cc3c(C)c(CN(C)C)c4[n]3[Pt][n]3c(c(C)c(CCC(=O)OC)c3=CC1=N2)=CC1=NC(=C4)C(C)=C1CN(C)C [Example 41, Platinum 3,8-Bis(dimethylaminomethyl) deuteroporphyrin dimethyl ester] | 200 nM | 48 h | 0% | – | – | – | – | – |
| C=CC1=C(C)c2cc3[n-]c(cc4nc(cc5[n-]c(cc1n2)c(C)c5CCC(=O)OC)C(CCC(=O)OC)=C4C)c(C)c3C=C.[Cl-].[Ga+3] [Example 42, Gallium Chloride Protoporphyrin Dimethyl Ester] | 480 nM | – | 70% | – | – | – | – | 6 h |
| CCC1=C(C)C2=NC1=Cc1c(C)c(CC)c3[n]1[Sn]([Cl])([Cl])[n]1c(c(C)c(CCCC(=O)OC)c1=CC1=NC(=C3)C(C)=C1CCCC(=O)OC)=C2 [Example 45, Tin(IV) Dichloride 8,13-diethyl-3,7,12,17-tetramethylporphyrin-2,18-di(butanoic acid methyl ester)] | 1500 nM | – | 20% | – | – | – | – | 24 h |
| CCCOC(=O)CCCC1=C(C)C2=Cc3c(CC)c(C)c4[n]3[Ga]([Cl])[n]3c(c(C)c(CCCC(=O)OCCC)c3=CC1=N2)=CC1=NC(=C4)C(CC)=C1C [Example 50, Gallium 8,13-diethyl-3,7,12,17-tetramethylporphyrin-2,18-di(butanoic acid propyl ester)] | 400 nM | – | 80% | – | – | – | – | 48 h |
| CCOC(=O)CCCCC1=C(C)C2=Cc3c(CC)c(C)c4[n]3[Sn]([Cl])([Cl])[n]3c(c(C)c(CCCCC(=O)OCC)c3=CC1=N2)=CC1=NC(=C4)C(CC)=C1C [Example 51, Tin(IV)dichloride 8,13-diethyl-3,7,12,17-tetramethylporphyrin-2,18-di(pentanoic acid ethyl ester)] | 1700 nM | 24 h | 20% | – | – | – | – | – |
| CCOC(=O)CCCCC1=C(C)c2cc3[n-]c(cc4nc(cc5[n-]c(cc1n2)c(CCCCC(=O)OCC)c5C)C(C)=C4CC)c(C)c3CC.[Cl-].[In+3] [Example 52, Indium Chloride 8,13-diethyl-3,7,12,17-tetramethylporphyrin-2,18-di(pentanoic acid ethyl ester)] | 50 nM | 48 h | 75% | – | – | – | – | – |
